For 27 compounds, Kd results are on record in US10647713B2 (Nimbus Lakshmi, Inc., priority 2016, dated 2020).

human TYK2 (JH2domain-pseudokinase), sequence (P29597 556-888): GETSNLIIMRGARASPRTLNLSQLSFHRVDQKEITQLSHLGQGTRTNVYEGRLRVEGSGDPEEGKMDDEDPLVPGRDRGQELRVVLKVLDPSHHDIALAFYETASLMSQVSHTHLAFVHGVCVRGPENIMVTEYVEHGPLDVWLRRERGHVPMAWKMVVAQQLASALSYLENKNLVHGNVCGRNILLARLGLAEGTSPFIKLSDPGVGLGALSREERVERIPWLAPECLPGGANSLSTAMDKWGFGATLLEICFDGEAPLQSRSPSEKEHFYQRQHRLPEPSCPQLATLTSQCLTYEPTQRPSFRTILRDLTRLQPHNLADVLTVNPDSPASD

In this assay the target is human TYK2 (JH2domain-pseudokinase) (Homo sapiens (Human), UniProt P29597). Nature of the assay: TYK2 JH2 Domain Binding Assay (KINOMEscan, DiscoveRx). Conditions: 11-point dilution, duplicate. The essentials:
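TYK2 JH2 (G556–D888)–NFkB DBD fusion, DNA-tagged, from HEK293 extracts (<0.1 nM) competed against immobilised biotinylated ligand for 1 h at room temperature, 0.9% DMSO. Bead-retained kinase quantified by qPCR; Kd from 11-point 3-fold series (top 30,000 nM, duplicate), Hill fit with slope −1.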
The Kd is a measure of binding affinity in units of concentration. High values mean a looser complex, low ones a tighter complex. Turning to `CS(=O)(=O)c1cc([C@@H]2CCCOC2)ccc1Nc1cc(NC(=O)[C@H]2CC2(F)F)nc2[nH]c(C(F)F)nc12` [I-439, (R)—N-(2-(difluoromethyl)-7-((2-(methylsulfonyl)-4-((S)-tetrahydro-2H-pyran-3-yl)phenyl)amino)-3H-imidazo[4,5-b]pyridin-5-yl)-2,2-difluorocyclopropane-1-carboxamide], the Kd lay in the range of 1 to 10 nM. To `COc1c(Nc2cc(NC(=O)[C@H]3C[C@H]3F)nc3[nH]c(C(F)F)nc23)cccc1-c1ncn(C)n1` [I-440, (1R,2R)—N-(2-(difluoromethyl)-7-((2-methoxy-3-(1-methyl-1H-1,2,4-triazol-3-yl)phenyl)amino)-3H-imidazo[4,5-b]pyridin-5-yl)-2-fluorocyclopropane-1-carboxamide] belongs 0.1 to 0.5 nM; to `Cc1nc2c(Nc3ccccc3[S@+](C)[O-])cc(NC(=O)C3CC3)nc2[nH]1` [I-441, (S)—N-(2-methyl-7-((2-(methylsulfinyl)phenyl)amino)-3H-imidazo[4,5-b]pyridin-5-yl)cyclopropanecarboxamide], 1 to 10 nM; to `Cc1nc2c(Nc3ccccc3[S@@+](C)[O-])cc(NC(=O)C3CC3)nc2[nH]1` [I-442, (R)—N-(2-methyl-7-((2-(methylsulfinyl)phenyl)amino)-3H-imidazo[4,5-b]pyridin-5-yl)cyclopropanecarboxamide], greater than 10 nM. Regarding `Cc1nc2c(Nc3ccc(F)cc3S(C)(=O)=O)cc(NC(=O)C3CC3)nc2[nH]1` [I-443, N-(7-((4-fluoro-2-(methylsulfonyl)phenyl)amino)-2-methyl-3H-imidazo[4,5-b]pyridin-5-yl)cyclopropanecarboxamide], the Kd is 0.1 to 0.5 nM. To `CP(C)(=O)c1cc(C2CCC2)ccc1Nc1cc(NC(=O)C2CC2)nc2[nH]c(C(F)F)nc12` [I-444, N-(7-((4-cyclobutyl-2-(dimethylphosphoryl)phenyl)amino)-2-(difluoromethyl)-3H-imidazo[4,5-b]pyridin-5-yl)cyclopropane carboxamide] belongs 0.1 to 0.5 nM; to `Cc1nc2c(Nc3ccc(C4CCC4)cc3P(C)(C)=O)cc(NC(=O)C3CC3)nc2[nH]1` [I-445, N-(7-((4-cyclobutyl-2-(dimethylphosphoryl)phenyl)amino)-2-methyl-3H-imidazo[4,5-b]pyridin-5-yl)cyclopropanecarboxamide], 0.1 to 0.5 nM; to `Cc1nn(C)c(C)c1-c1ccc(Nc2cc(NC(=O)C3CC3)nc3[nH]c(C(F)F)nc23)c(S(C)(=O)=O)c1` [I-446, N-(2-(difluoromethyl)-7-((2-(methylsulfonyl)-4-(1,3,5-trimethyl-1H-pyrazol-4-yl)phenyl)amino)-3H-imidazo[4,5-b]pyridin-5-yl)cyclopropanecarboxamide], 0.1 to 0.5 nM. In the case of `Cc1nc2c(Nc3ccc(-c4c(C)nn(C)c4C)cc3S(C)(=O)=O)cc(NC(=O)C3CC3)nc2[nH]1` [I-447, N-(2-methyl-7-((2-(methylsulfonyl)-4-(1,3,5-trimethyl-1H-pyrazol-4-yl)phenyl)amino)-3H-imidazo[4,5-b]pyridin-5-yl)cyclopropanecarboxamide] it was 0.1 to 0.5 nM; in that of `[2H]C([2H])([2H])S(=O)(=O)N(C)c1ccccc1Nc1cc(Nc2cc(C)nc(C)n2)nc2[nH]c(C(F)F)nc12` [I-448, N-(2-((2-(difluoromethyl)-5-((2,6-dimethylpyrimidin-4-yl)amino)-3H-imidazo[4,5-b]pyridin-7-yl)amino)phenyl)-N-methylmethanesulfonamide-d3], 0.1 to 0.5 nM; in that of `Cc1nc2c(Nc3ccc(-c4nn(C)cc4C)cc3S(C)(=O)=O)cc(Nc3cnc(C)c(C)n3)nc2[nH]1` [I-449, N7-(4-(1,4-dimethyl-1H-pyrazol-3-yl)-2-(methylsulfonyl)phenyl)-N5-(5,6-dimethylpyrazin-2-yl)-2-methyl-3H-imidazo[4,5-b]pyridine-5,7-diamine], 0.1 to 0.5 nM. `Cc1cn(C)c(-c2ccc(Nc3cc(NC(=O)C4CC4)nc4[nH]c(C(F)F)nc34)c(S(C)(=O)=O)c2)n1` [I-450, N-(2-(difluoromethyl)-7-((4-(1,4-dimethyl-1H-imidazol-2-yl)-2-(methylsulfonyl)phenyl)amino)-3H-imidazo[4,5-b]pyridin-5-yl)cyclopropanecarboxamide] displayed a Kd of 0.1 to 0.5 nM.

Regarding `Cc1cnc(-c2ccc(Nc3cc(NC(=O)C4CC4)nc4[nH]c(C(F)F)nc34)c(S(C)(=O)=O)c2)n1C` [I-451, N-(2-(difluoromethyl)-7-((4-(1,5-dimethyl-1H-imidazol-2-yl)-2-(methylsulfonyl)phenyl)amino)-3H-imidazo[4,5-b]pyridin-5-yl)cyclopropaneCarboxamide], the Kd lay in the range of 0.1 to 0.5 nM. As to `CS(=O)(=O)c1cc([C@@H]2CCOC2)ccc1Nc1cc(NC(=O)C2CC2)nc2[nH]c(C(F)F)nc12` [I-452, (S)—N-(2-(difluoromethyl)-7-((2-(methylsulfonyl)-4-(tetrahydrofuran-3-yl)phenyl)amino)-3H-imidazo[4,5-b]pyridin-5-yl)cyclopropanecarboxamide], the Kd is 0.5 to 1 nM.

In turn, `CS(=O)(=O)c1cc([C@H]2CCOC2)ccc1Nc1cc(NC(=O)C2CC2)nc2[nH]c(C(F)F)nc12` [I-453, (R)—N-(2-(difluoromethyl)-7-((2-(methylsulfonyl)-4-(tetrahydrofuran-3-yl)phenyl)amino)-3H-imidazo[4,5-b]pyridin-5-yl)cyclopropanecarboxamide] returned a Kd of 0.1 to 0.5 nM.

Take `CO[C@H](C)c1ccc(Nc2cc(NC(=O)C3CC3)nc3[nH]c(C(F)F)nc23)c(S(C)(=O)=O)c1` [I-454, (R)—N-(2-(difluoromethyl)-7-((4-(1-methoxyethyl)-2-(methylsulfonyl)phenyl)amino)-3H-imidazo[4,5-b]pyridin-5-yl)cyclopropanecarboxamide]: the dissociation constant Kd lay in the range of 0.5 to 1 nM. In turn, `CO[C@@H](C)c1ccc(Nc2cc(NC(=O)C3CC3)nc3[nH]c(C(F)F)nc23)c(S(C)(=O)=O)c1` [I-455, (S)—N-(2-(difluoromethyl)-7-((4-(1-methoxyethyl)-2-(methylsulfonyl)phenyl)amino)-3H-imidazo[4,5-b]pyridin-5-yl)cyclopropanecarboxamide] showed an equilibrium dissociation constant (Kd) of 1 to 10 nM. In the case of `[2H]C([2H])([2H])S(=O)(=O)N(C)c1ccccc1Nc1cc(Nc2cc(C)nc(C)n2)nc2[nH]c(C)nc12` [I-456, N-(2-((5-((2,6-dimethylpyrimidin-4-yl)amino)-2-methyl-3H-imidazo[4,5-b]pyridin-7-yl)amino)phenyl)-N-methylmethanesulfonamide-d3], the Kd is 0.1 to 0.5 nM. In the case of `[2H]C([2H])([2H])N(c1ccccc1Nc1cc(Nc2cc(C)nc(C)n2)nc2[nH]c(C(F)F)nc12)S(=O)(=O)C([2H])([2H])[2H]` [I-457, N-(2-((2-(difluoromethyl)-5-((2,6-dimethylpyrimidin-4-yl)amino)-3H-imidazo[4,5-b]pyridin-7-yl)amino)phenyl)-N-(methyl-d3)methanesulfonamide-d3] it was 0.1 to 0.5 nM; in that of `[2H]C([2H])([2H])N(c1ccccc1Nc1cc(Nc2cc(C)nc(C)n2)nc2[nH]c(C)nc12)S(=O)(=O)C([2H])([2H])[2H]` [I-458, N-(2-((5-((2,6-dimethylpyrimidin-4-yl)amino)-2-methyl-3H-imidazo[4,5-b]pyridin-7-yl)amino)phenyl)-N-(methyl-d3)methanesulfonamide-d3], 0.1 to 0.5 nM; in that of `Cc1cn(C)nc1-c1ccc(Nc2cc(NC(=O)[C@@H]3CC3(C)C)nc3[nH]c(C(F)F)nc23)c(S(C)(=O)=O)c1` [I-459, (R)—N-(2-(difluoromethyl)-7-((4-(1,4-dimethyl-1H-pyrazol-3-yl)-2-(methylsulfonyl)phenyl)amino)-3H-imidazo[4,5-b]pyridin-5-yl)-2,2-dimethylcyclopropane-1-carboxamide], 1 to 10 nM. `Cc1cn(C)nc1-c1ccc(Nc2cc(NC(=O)[C@H]3CC3(C)C)nc3[nH]c(C(F)F)nc23)c(S(C)(=O)=O)c1` [I-460, (S)—N-(2-(difluoromethyl)-7-((4-(1,4-dimethyl-1H-pyrazol-3-yl)-2-(methylsulfonyl)phenyl)amino)-3H-imidazo[4,5-b]pyridin-5-yl)-2,2-dimethylcyclopropane-1-carboxamide] yielded a Kd of 1 to 10 nM.

On to `Cc1cn(C)c(-c2ccc(Nc3cc(NC(=O)C4CC4)nc4[nH]c(C)nc34)c(S(C)(=O)=O)c2)n1` [I-461, N-(7-((4-(1,4-dimethyl-1H-imidazol-2-yl)-2-(methylsulfonyl)phenyl)amino)-2-methyl-3H-imidazo[4,5-b]pyridin-5-yl)cyclopropanecarboxamide], for which the Kd is 0.1 to 0.5 nM. For `Cc1nc2c(Nc3ccc(-c4ncc(C)n4C)cc3S(C)(=O)=O)cc(NC(=O)C3CC3)nc2[nH]1` [I-462, N-(7-((4-(1,5-dimethyl-1H-imidazol-2-yl)-2-(methylsulfonyl)phenyl)amino)-2-methyl-3H-imidazo[4,5-b]pyridin-5-yl)cyclopropanecarboxamide], the Kd fell in the range of 0.1 to 0.5 nM. In turn, `Cc1csc(-c2ccc(Nc3cc(Nc4cnc(C)c(C)n4)nc4[nH]c(C(F)F)nc34)c(S(C)(=O)=O)c2)n1` [I-463, 2-(difluoromethyl)-N5-(5,6-dimethylpyrazin-2-yl)-N7-(2-(methylsulfonyl)-4-(4-methylthiazol-2-yl)phenyl)-3H-imidazo[4,5-b]pyridine-5,7-diamine] gave a Kd of 1 to 10 nM. `Cc1csc(-c2ccc(Nc3cc(Nc4cnc(C)c(C)n4)nc4[nH]c(C)nc34)c(S(C)(=O)=O)c2)n1` [I-464, N5-(5,6-dimethylpyrazin-2-yl)-2-methyl-N7-(2-(methylsulfonyl)-4-(4-methylthiazol-2-yl)phenyl)-3H-imidazo[4,5-b]pyridine-5,7-diamine] returned a Kd of 0.5 to 1 nM.

Consider `Cc1nc2c(Nc3ccc(-c4nc(C)c(C)s4)cc3S(C)(=O)=O)cc(Nc3cnc(C)c(C)n3)nc2[nH]1` [I-466, N5-(5,6-dimethylpyrazin-2-yl)-N7-(4-(4,5-dimethylthiazol-2-yl)-2-(methylsulfonyl)phenyl)-2-methyl-3H-imidazo[4,5-b]pyridine-5,7-diamine], for which the dissociation constant (Kd) lay within 0.5 to 1 nM.
